According to patent publication US5698550A, “Tetralin and chroman derivatives useful in the treatment of asthma, arthritis and related diseases” (Pfizer Inc., priority 1993, dated 1997):

System: PAF-induced lethality in CD1 male mice
Assay: PAF lethality assay
Format: in vivo
Settings: Mus musculus; positive control; oral dosing 45 minutes before i.v. PAF injection; mortality compared to controls; read-out: approximate ED 50
Description: To evaluate the compounds of the formula (I) in vivo, they are tested by the so-called PAF lethality assay procedure:
Mice: CD1 males, all approximately the same weight (approximately 26 grams), 12 per group.
Vehicle for oral drug dosing: EES (5% ethanol, 5% emulphor, 90% saline). Stored at room temperature.
Drugs: For routine screening at 50 mg/kg, 20 mg drug is dissolved in 4 ml EES, using sonication in a sonicator bath or grinding in a Ten Broeck grinder to dissolve drug if necessary. If solubility is still a problem, the drug is used as a suspension.
Vehicle for i.v. Injection: Saline with 2.5 mg/ml Bovine Serum Albumin (BSA, Sigma #A4378) and 0.05 mg/ml Propranolol (Sigma #P0884). Prepared fresh daily and kept at room temperature.
Platelet Activating Factor (PAF): A […] stock solution is prepared by dissolving 1 mg PAF (Calbiochem #429460) in 0.18 ml ethanol. This is stored at -20° C. and is diluted in vehicle (see above) the day of use. The concentration of PAF used is calibrated so that when injected at 0.1 ml/10 grams body weight, it will kill approximately 80% of untreated controls. This is usually about […] (a 1 to 2034 dilution from stock). […]
45 minutes before PAF injection, mice are treated orally with drug using 0.1 ml/10 grams body weight. […] Results are expressed as percent mortality as compared to controls. […]

Work on `O=C1CCN(c2ccccc2)N1` [Phenidone] yielded an ED50 of about 25 mg/kg.
